Each block holds one molecule with its values, some of them ahead of it. Square brackets hold non-standard residues; d marks the D form. Ends that are not written are not given here. Peptide text beside a SMILES is read from it.
Experiments:
[1] = tested on: HAVSMC; assay: Actin cytoskeleton staining (F-actin) in HAVSMC; assay type: cell-based, human; conditions: DEA/NO 10 μM
Experimental: VSMC were grown on glass well slides (Lab-Tek, Nunc) under standard growth conditions. Cells were incubated at 37° C. for 1 hour in serum and additive deficient growth medium and the indicated treatment agents, after which the media was removed and the cells were fixed in 4% paraformaldehyde in PBS (pH 7.4, Fisher Scientific) for 15 minutes at room temperature. After washing with DPBS, cells were permeabilized for 5 minutes in 0.1% Triton X-100 in PBS and then blocked in M199E/2% BSA for 30 min at room temperature. Cells were stained for F-actin with 1 unit/200 μl medium/1% BSA of Oregon Green 488 phalloidin (Molecular Probes). Slides were imaged using an Olympus IX70 microscope and photographed at constant exposure and gain. In other experiments VSMC were plated on 24-well culture plates (Nunc, Denmark) in smooth muscle growth medium (50,000 cells/well) and weaned from serum and additives over 24 hours. Cell treatment was performed with the indicated agents in plain medium with 0.1% BSA for 5 minutes. Wells were processed as described above. Following staining with phalloidin cells were incubated in methanol for 30 minutes, samples aliquoted to 96-well black plates and fluorescence read at 520 nm (excitation 495 nm). Data was normalized to total protein. Results represent the mean±SD of at least three separate experiments.

[2] = tested on: human platelets; assay: Human platelet adhesion assay; assay type: cell-based; conditions: fibrinogen or collagen, DEA/NO 10 μM
Experimental: Bacteriological Petri dishes (35×10 mm, Becton Dickinson Labware) were pre-coated with collagen (3 μg/ml) or fibrinogen (15 μg/mL) overnight. Following aspiration of non-adherent matrix, dishes were blocked with 1% BSA. Fresh platelets were washed and suspended in Tyrode's buffer and allowed to adhere for 30 minutes. Plates were washed with PBS, fixed with 0.5% glutaraldehyde and stained with 0.02% toluidine blue. Adherent platelets were counted microscopically. In some experiments platelets were pre-incubated with the Rap1 geranylgeranyltransferase inhibitor GGTI-298 (10 μM) for 30 minutes prior to initiating adhesion.

[3] = tested on: blood pressure and pulse in mice; assay: Blood pressure and pulse measurements (tail cuff); assay type: in vivo, mouse
Experimental: Mean systolic, diastolic and arterial blood pressure (BP) and mean pulse was measured in age and sex matched mice using a computerized tail cuff system (Hatteras Systems, MC4000 Blood Pressure Analysis System, Cary, N.C.). The mice were allowed to acclimate to the apparatus for 5 min prior to the start of measurement. Each animal underwent a cycle of 10 preliminary and 50 experimental pressures measurements for data acquisition and data calculation. Animals were acclimated to the measuring system and protocol for 4 days with treatment with data acquisition being performed on the 5th day. Pressures recordings were performed at the same time each day. Data was accepted if the mouse had valid readings for at least 20 consecutive pulse beats. All studies were performed at the same hour each day.
Respirations were monitored continuously monitored by direct observation of the animal. Body core temperature was measured via rectal probe. Temperature control was performed using a water-circulating warming surface and heating lamp. Following a 15 minute period of stabilization mean systolic, diastolic and arterial blood pressure and mean pulse measurements were determined.

[4] = tested on: NO/cGMP signaling; assay: cGMP signaling (NO-stimulated cGMP, immunoassay); assay type: cell-based, human; conditions: concentration for 50% inhibition of effect
Experimental: Vascular cells (endothelial) or HT-1080 cells (10^4 cells/well) grown overnight in 12-well culture in SM-GM containing 2% FCS or RPMI+10% FCS respectively and then weaned off serum over 48 h before treatment with NO donors and other agents in serum/additive free medium+0.1% BSA. Intracellular cGMP levels were determined using an enzyme immunoassay (Amersham, GE Health Care, UK). In other experiments fresh washed human platelets were incubated in Tyrode's buffer and the indicated treatment agents±NO and cGMP determined.

[5] = tested on: human platelets; assay: Thrombin-induced human platelet aggregation; assay type: cell-based; conditions: DEA/NO 10 μM
Experimental: Platelets were pelleted from platelet-rich plasma (PRP) by centrifugation for 10 minutes at 200 g. They were then washed with acid citrate dextrose (ACD) (85 mM citric acid, 65 mM sodium citrate, 100 mM glucose, pH 5.1) at a ratio of 1:7 at room temperature. After pelleting the platelets again and removing the supernatant, the platelets were resuspended in 5 mL of Tyrode's buffer (137 mM NaCl, 3 mM KCl, 12 mM NaHCO3, 0.3 mM NaHPO4, 2 mM CaCl2, 1 mM MgCl2, 5.5 mM glucose, 5 mM HEPES, 3.5 mg/mL BSA, pH 7.4). The final platelet number was adjusted to […] in 500 μl/cuvette of Tyrode's buffer.
Aggregation of human platelets under high shear conditions was assessed using a standard optical aggregometer (Lumi-Dual Aggregometer, Chrono-Log Corp., Havertown, Pa.) at 37° C. and 1200 rpm in a volume of 500 μl buffer with a final platelet concentration of 2×10^5 platelets/μl over a 5 minute interval. Pre-incubation with TSP1 and TSP1-based agents was for 15 minutes prior to addition of thrombin and/or the rapidly releasing nitric oxide donor DEA/NO. In some experiments platelets were pre-incubated with the Rap1 inhibitor GGTI-298 (10 μM) (Calbiochem, La Jolla, Calif.) for 30 minutes prior to initiating aggregation. In other high shear aggregation experiments murine platelets were prepared as above with the following modifications. Mouse blood was collected by retro-orbital bleeding of anesthetized mice using heparinized tubes. PRP was prepared and then diluted with 4 vol. of Tyrodes containing 5 mM EDTA to prevent activation. After collection by centrifugation, platelets were resuspended in 2× initial PRP volume and held at room temperature for less than 1 hour before use. Aggregation conditions consisted of 250 μL of washed platelets stirred at 1200 rpm in a Chronolog Optical aggregometer at 37° C. DEA/NO (10 μM) was added 30 seconds prior to activation and 8-BrcGMP added 15 min prior to activation with 0.2 U/ml human thrombin. Data was collected using Chronolog “Aggrolink” software. Platelet aggregation under static conditions was assessed using a spectrophotometer (Beckman DU 640, Beckman Coulter, Fullerton, Calif.) and determined as a change in absorbance at 400 nm with continuous observation over a five minute interval. The cuvette was inverted once every 60 seconds. Pre-incubation with TSP1 and TSP1-based agents was for 15 minutes prior to addition of thrombin and/or DEA/NO to minimize the formation of thrombin-serpinthrombospondin complexes (Chang & Detwiler, Arch Biochem Biophys. 299:100-104, 1992), which interfere with thrombin-platelet interactions.
Fresh human platelets were suspended in Tyrode's buffer and under low shear conditions thrombin-stimulated aggregation measured as described. Platelets were then treated with peptide C6d (1 μM)±NO (10 μM DEA/NO) and thrombin and aggregation measure.

[6] = tested on: human platelets; assay: cGMP in human platelets; assay type: cell-based; conditions: washed human platelets in Tyrode's buffer
Experimental: Fresh human platelets at 2×10^5 platelets/μl in Tyrode's buffer or PRP were pre-incubated with the indicated agents for 15 minutes and then challenged with DEA/NO for the indicated time interval at room temperature and total cGMP determined via immunoassay (Amersham, GE Healthcare, Buckinghamshire, UK). Murine WT and TSP1-null platelets were treated with DEA/NO and cGMP flux measured.

[7] = tested on: murine ASMC (WT, CD36 null, CD47 null); assay: Intracellular cGMP in murine ASMC; assay type: cell-based, mouse
Experimental: Murine ASMC were obtained from aortic segments harvested sterilely from C57B1/6 CD47 null or CD36 null mice as described (Ray et al., Methods Cell Sci 23:185-188, 2001) and cultured in SM-GM (Cambrex)+20% FCS. In the case of CD36 null cells, culture flasks were pre-coated with 1% gelatin prior to cell plating. Wild type C57B1/6 ASMC cultures were prepared as previously described (Isenberg et al., Matrix Biol 24:110-123, 2005). Cell culture purity was determined by immunohistochemistry staining for α-smooth muscle actin. Cells were used within passage 1 to 4 to minimize overgrowth of other cell types.
HUVEC (10^4 cells/well) grown overnight in 96-well culture plates containing full growth medium with 2% FCS and weaned in growth medium without additives and 1% FCS over 24 hrs before treatment with NO donors and other agents in SM-GM without additives+0.1% BSA. Intracellular cGMP levels were determined according to the manufacturer's instructions using an enzyme immunoassay kit (Amersham Biosciences). In other experiments ASMC from wild type and CD36 or CD47 null mice were plated onto 96-well culture plates and incubated overnight in full growth medium. They were then weaned off serum as described to SM-GM+0.1% BSA and treated with NO donor and other agents as indicated. Intracellular cyclic nucleotides were determined via immunoassay.

[8] = tested on: HUVEC; assay: NO-stimulated HUVEC adhesion on type I collagen; assay type: cell-based, human; conditions: DEA/NO 10 μM, 1 h
Experimental: Cell adhesion was carried out in 96-well culture plates. After pre-coating wells with type I collagen (3 μg/ml in DPBS) harvested cells were plated at a density of 1×10^4 cells/well in medium plus 0.1% BSA and treatment agents and incubated in 5% CO2 for 1 h. Wells were washed with PBS and cells fixed with 1% glutaraldehyde for 10 min., washed and stained with 1% crystal violet for 20 min. Excess stain was rinsed away, adherent cells treated with 10% acetic acid, and plates read at 570 nm.

Molecule: O=c1onc2cnc3ccccc3n12 [ODQ, Oxadiazole-[4,3-a]quinoxalin-1-one, reference compound]
NO-induced actin disassembly [1]: inhibition of actin disassembly by NO
decrease in platelet adhesion in response to exogenous NO [2]: prevented the decrease in platelet adhesion

Molecule: CCCN(CCCN)/[N+]([O-])=N/O [PAPA/NO]
mean arterial blood pressure response ([3]; CD47 null animals, i.p.): greatest drop in mean arterial blood pressure
blood pressure response ([3]; TSP1 null versus wild type, i.p.): drop in mean arterial pressure always greater in the absence of TSP1
mean pulse ([3]; after i.p. challenge): only modestly increased

IC50 [4]: ~10 µM
Molecule: CC[C@H](C)[C@H](N)C(=O)NCC(=O)N[C@@H](Cc1c[nH]c2ccccc12)C(=O)N[C@@H](CCCCN)C(=O)N[C@@H](CC(=O)O)C(=O)N[C@@H](Cc1ccccc1)C(=O)N[C@H](C(=O)N[C@@H](C)C(=O)N[C@@H](C)C(=O)N[C@@H](CCCNC(=N)N)C(=O)O)[C@@H](C)O [compound 37555, IGWKDFTAAR] (H-IGWKDFTAAR-OH)

Molecule: FC(F)OC(Cl)C(F)(F)F (stereo not drawn) [isoflurane, Isoflurane]
blood pressure under general anesthesia ([3]; TSP1-null animals): significant decreases in systolic, diastolic and mean arterial blood pressures
blood pressure under general anesthesia ([3]; wild type mice): very modest overall drop in mean arterial pressure

Molecule: E123CaG-1: recombinant C-terminal domains of TSP1
NO delay of thrombin-induced platelet aggregation ([5]; high shear, thrombin 0.2 U/ml): blocked the ability of NO to delay thrombin-induced aggregation
NO delay of thrombin-induced platelet aggregation ([5]; static / low shear conditions): reversed the NO delay of aggregation under static conditions
NO stimulated cGMP in platelets [6]: inhibited NO stimulated cGMP flux

Molecule: GDGV(D-I)TRIR (GDGV[dI]TRIR) [p907, reference compound]
NO-stimulated cGMP ([7]; CD36 null MASMC): partially inhibited
NO-stimulated cGMP ([7]; CD47 null MASMC): did not significantly inhibit
NO-stimulated cGMP ([7]; WT MASMC): slightly inhibited
NO-stimulated cGMP ([7]; WT MASMC, listed as 907): inhibited NO-stimulated cGMP responses in WT
NO delay of thrombin-induced platelet aggregation ([5]; high shear, thrombin 0.2 U/ml): accelerated platelet aggregation in the presence of NO
NO-stimulated endothelial cell adhesion on type I collagen [8]: inhibited NO-stimulated endothelial cell adhesion
NO stimulated cGMP in platelets [6]: partially inhibited

cGMP signaling IC50 [4]: inactive
Molecule: IGWKAFTAYR [compound 37296]

cGMP signaling IC50 [4]: inactive
Molecule: IGWKDFTAYK [compound 37554]

Molecule: RFYGGMWK [p4N1G, control peptide, VVM substituted by GGM]
NO-stimulated endothelial cell adhesion on type I collagen [8]: did not significantly inhibit

Molecule: RFYVVMWK [4N1-1]
NO delay of thrombin-induced platelet aggregation ([5]; static / low shear conditions): prevented an NO-stimulated delay in platelet aggregation
NO-stimulated endothelial cell adhesion on type I collagen [8]: inhibited NO-stimulated endothelial cell adhesion

Molecule: VTAGGGVQKRSRL [p906]
NO delay of thrombin-induced platelet aggregation ([5]; static / low shear conditions): reversed an NO-stimulated delay of platelet aggregation
NO-stimulated endothelial cell adhesion on type I collagen [8]: inhibited NO-stimulated endothelial cell adhesion

Molecule: fibronectin [reference compound]
NO delay of thrombin-induced platelet aggregation ([5]; high shear, thrombin 0.2 U/ml): no significant effect
NO stimulated cGMP in platelets [6]: no inhibition
